The values below are quoted from earlier work in patent US20210008095A1, “METHODS FOR TREATING MUSCULAR DYSTROPHY” (Sarepta Therapeutics, Inc., priority 2015, published 2021).

The structures appear in SMILES notation.

The test system of one data set is patient cells. The note with it: cited from earlier work.
The test system of another data set is mouse model of DMD. The note with it: cited from earlier work.

`O=C1CN(/N=C/c2ccc(-c3ccc([N+](=O)[O-])cc3)o2)C(O)=N1` [dantrolene]: the “effect on antisense-mediated exon skipping” value with patient cells and with mouse model of DMD was “enhance antisense-mediated exon skipping” throughout.
